Measurements taken from US10344019B2 (priority 2010, dated 2019).
Where two headings read alike, the source gives them in different places.

Legend:
Assay type in all cases: cell-based
[1] = test system: HCV 1b RLuc cells (dicistronic genotype 1b Con1 replicon, RLuc reporter); assay: microbe, parasite or virus in culture; conditions: Hepatitis C virus, read-out: 1b (nM)
In short: (§1)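 Replicons used: genotype 1b Con1, 1a H77, 2a JFH-1, and a 2a JFH-1 chimera with J6-strain NS5A (M31 present), all dicistronic.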

[2] = test system: HCV 1a RLuc cells (dicistronic genotype 1a H77 replicon, RLuc reporter); assay: microbe, parasite or virus in culture; conditions: Hepatitis C virus, read-out: 1a
In short: as §1

[3] = test system: HCV 4a Rluc cells (NS5A chimeric genotype 1b Con1 replicon with genotype 4a NS5A gene); assay: microbe, parasite or virus in culture; conditions: Hepatitis C virus, read-out: 4a
In short: (§2)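 Replicon cells stably carrying the listed RLuc-encoding dicistronic replicons were seeded and treated with DMSO serial dilutions of compound (10 mM stocks) diluted into culture medium. After 72 h, cells were lysed and Renilla luciferase activity measured. EC50 was derived by non-linear regression.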

[4] = test system: HCV 2b Rluc cells (NS5A chimeric genotype 2a JFH-1 replicon with genotype 2b MD2b-1 NS5A gene, M31 present); assay: microbe, parasite or virus in culture; conditions: Hepatitis C virus, read-out: 2b
In short: as §2

[5] = test system: HCV 3a RLuc cells (NS5A chimeric genotype 1b Con1 replicon with consensus genotype 3a NS5A gene); assay: microbe, parasite or virus in culture; conditions: Hepatitis C virus
In short: as §2

[6] = test system: HCV 2a JFH-1 Rluc cells (dicistronic genotype 2a JFH-1 replicon, RLuc reporter); assay: microbe, parasite or virus in culture; conditions: Hepatitis C virus, read-out: 2a JFH
In short: as §1

[7] = test system: HCV 2a Rluc cells (NS5A chimeric genotype 2a JFH-1 replicon with genotype 2a J6 strain NS5A gene, M31 present); assay: HCV replicon reporter assay, genotype 2a J6 (M31 present); conditions: Hepatitis C virus, read-out: 2a J6
Experimental: Evaluation of cell-based anti-HCV activity: Antiviral potency (EC50) was determined using a Renilla luciferase (RLuc)-based HCV replicon reporter assay. To perform the assay for genotype 1 and 2a JFH-1, HCV 1b RLuc cells (harboring a dicistronic genotype 1b Con1 replicon that encodes a RLuc reporter), or HCV 1a RLuc cells (harboring a dicistronic genotype 1a H77 replicon that encodes a RLuc reporter), or HCV 2a JFH-1 Rluc cells (harboring a dicistronic genotype 2a JFH-1 replicon that encodes a RLuc reporter) were dispensed into 384-well plates. To perform the assay for genotype 2a (with M31 present) or 2b, HCV 2a Rluc or 2b Rluc cells (both with M31 present) harboring a dicistronic NS5A chimeric genotype 2a JFH-1 replicon that encodes a RLuc reporter and either genotype 2a J6 strain NS5A gene or genotype 2b MD2b-1 NS5A gene (based on Los Alamos HCV database isolates, both with M31 present) respectively, were dispensed into 384-well plates. To perform the assay for genotype 3 and 4, HCV 3a RLuc or 4a Rluc cells harboring a dicistronic NS5A chimeric genotype 1b Con1 replicon that encodes a RLuc reporter and either a consensus genotype 3a NS5A gene or genotype 4a NS5A gene (based on Los Alamos HCV database isolates) respectively, were dispensed into 384-well plates. Compounds were re-suspended in DMSO at a concentration of 10 mM and serially diluted in DMSO either manually or using an automated pipeting instrument. Serially diluted compounds were mixed with cell culture media and added to the seeded cells. […] 72 hours later, cells were lysed and Renilla luciferase activity quantified as recommended by the manufacturer (Promega-Madison, Wis.). Non-linear regression was performed to calculate EC50 values.

[8] = read-out: 3a, genotype 3a replicon
[9] = genotype 2a JFH-1 RLuc replicon
[10] = 72 h, Table 2, genotype 1a H77 replicon, 72 hours
[11] = read-out: 3a, Table 2, genotype 3a NS5A chimeric replicon
[12] = 72 h, Table 2, genotype 2a JFH-1 replicon, 72 hours

Compound | EC50 [1] [nM] | EC50 [3] [pM] | EC50 [4] [pM] | EC50 [5, 8] [pM] | EC50 [7] [pM] | EC50 ([2]; genotype 1a H77 RLuc replicon) [pM] | EC50 [6, 9] [pM] | further results
CC[C@H](C)C(NC(=O)OC)C(=O)N1CCC[C@H]1c1ncc(-c2cc3c4c(c2)OCc2cc(-c5cnc([C@@H]6CCCN6C(=O)[C@@H](NC(=O)OC)[C@@H](C)CC)[nH]5)cc(c2-4)OC3)[nH]1 (stereo in doubt) [Example 346] | 0.019 | 1 to 990 | 1000 to 44000 | 1 to 990 | – | – | – | EC50 [2]: 1 to 999 pM; EC50 [6]: 1 to 999 pM
COC[C@H]1C[C@@H](c2ncc(-c3ccc4c(c3)COc3cc5c(ccc6nc([C@@H]7C[C@H](COC(F)F)CN7C(=O)[C@@H](NC(=O)OC)C(C)C)[nH]c65)cc3-4)[nH]2)N(C(=O)[C@@H](NC(=O)OC)C(C)C)C1 [Example 634] | 0.015 | – | 1 to 999 | – | 1 to 999 | 1 to 999 | 1 to 999 | –
COC(=O)N[C@H](C(=O)N1C[C@@H](COC(F)F)C[C@H]1c1ncc(-c2ccc3c(c2)COc2cc4c(ccc5nc([C@@H]6CC[C@H](C)N6C(=O)[C@@H](NC(=O)OC)C(C)C)[nH]c54)cc2-3)[nH]1)C(C)C [Example 632] | 0.008 | – | 1 to 999 | – | 1 to 999 | 1 to 999 | 1 to 999 | –
CC[C@@H](C)[C@H](NC(=O)OC)C(=O)N1C[C@@H](COC)C[C@H]1c1ncc(-c2ccc3c(c2)COc2cc4c(ccc5nc([C@@H]6CC[C@H](C)N6C(=O)[C@@H](NC(=O)OC)C(C)C)[nH]c54)cc2-3)[nH]1 [Example 628] | – | – | 1 to 999 | – | 1 to 999 | 1 to 999 | 1 to 999 | –
COC(=O)N[C@H](C(=O)N1[C@@H](C)CC[C@H]1c1ncc(-c2ccc3c(c2)COc2cc4c(ccc5nc([C@@H]6CCCN6C(=O)[C@@H](NC(=O)OC)C6CCOCC6)[nH]c54)cc2-3)[nH]1)C(C)C [Example 602] | – | – | 1 to 999 | – | 1 to 999 | 1 to 999 | 1 to 999 | –
COC[C@H]1C[C@@H](c2ncc(-c3ccc4c(c3)COc3cc5c(ccc6nc([C@@H]7CCCN7C(=O)[C@@H](NC(=O)OC)C(C)C)[nH]c65)cc3-4)[nH]2)N(C(=O)[C@H](N)c2ccccc2)C1 [Example 607] | – | – | 1 to 999 | – | 1 to 999 | 1 to 999 | 1 to 999 | –
CC[C@@H](C)[C@H](NC(=O)OC)C(=O)N1C[C@@H](COC)C[C@H]1c1nc2ccc3cc4c(cc3c2[nH]1)OCc1cc(-c2cnc([C@@H]3CC[C@H](C)N3C(=O)[C@@H](NC(=O)OC)[C@H](C)CC)[nH]2)ccc1-4 [Example 643] | – | – | 1 to 999 | – | 1 to 999 | 1 to 999 | 1 to 999 | –
CC[C@H](C)[C@H](NC(=O)OC)C(=O)N1[C@@H](C)CC[C@H]1c1ncc(-c2ccc3c(c2)COc2cc4c(ccc5nc([C@@H]6C[C@H](COC)CN6C(=O)[C@@H](NC(=O)OC)C(C)C)[nH]c54)cc2-3)[nH]1 [Example 638] | 0.009 | – | 1 to 999 | – | 1 to 999 | 1 to 999 | 1 to 999 | –
CC[C@H](C)[C@H](NC(=O)OC)C(=O)N1C[C@@H](COC)C[C@H]1c1ncc(-c2ccc3c(c2)COc2cc4c(ccc5nc([C@@H]6CC[C@H](C)N6C(=O)[C@@H](NC(=O)OC)C(C)C)[nH]c54)cc2-3)[nH]1 [Example 619] | 0.007 | – | 1 to 999 | – | 1 to 999 | 1 to 999 | 1 to 999 | –
COC[C@H]1C[C@@H](c2nc3ccc4cc5c(cc4c3[nH]2)OCc2cc(-c3cnc([C@@H]4CCCN4C(=O)[C@H](NC(=O)OC)c4ccccc4)[nH]3)ccc2-5)N(C(=O)[C@@H](NC(=O)OC)[C@@H](C)OC)C1 [Example 635] | – | – | 1 to 999 | – | – | – | – | EC50 [2]: 1 to 999 pM; EC50 [6]: 1 to 999 pM
COC(=O)N[C@H](C(=O)N1[C@@H](C)CC[C@H]1c1ncc(-c2ccc3c(c2)COc2cc4c(ccc5nc([C@@H]6CCCN6C(=O)[C@H](N)c6ccccc6)[nH]c54)cc2-3)[nH]1)C(C)C [Example 604] | 0.02 | – | 1 to 999 | – | 1 to 999 | 1 to 999 | 1 to 999 | –
COC(=O)N[C@H](C(=O)N1CCC[C@H]1c1nc2ccc3cc(-c4ccc(-c5cnc([C@@H]6[C@H]7CC[C@H](C7)N6C(=O)[C@@H](NC(=O)OC)C(C)C)[nH]5)cc4)ccc3c2[nH]1)C(C)C [Example 53] | – | 1 to 990 | – | – | > 44000 | – | – | EC50 ([1]; 72 h): 0.01 nM; EC50 [2, 10]: 1 to 999 pM; EC50 [5, 11]: 1 to 990 pM; EC50 [6, 12]: 1 to 999 pM
COC(=O)N[C@H](C(=O)N1[C@@H]2CC[C@@H](C2)[C@H]1c1nc(Cl)c(-c2ccc(-c3ccc4c(ccc5nc([C@@H]6CCCN6C(=O)[C@H](NC(=O)OC)c6ccccc6)[nH]c54)c3)cc2)[nH]1)C(C)C [Example 401] | 0.015 | 1 to 990 | – | 1 to 990 | 1000 to 44000 | – | – | EC50 ([2]; genotype 1a replicon): 1 to 999 pM; EC50 ([6]; genotype 2a JFH-1 replicon): 1 to 999 pM
COC(=O)N[C@H](C(=O)N1[C@@H]2CC[C@@H](C2)[C@H]1c1nc2ccc3cc(-c4ccc5c(ccc6nc([C@@H]7C[C@H]8C[C@H]8N7C(=O)[C@@H](NC(=O)OC)C(C)C)[nH]c65)c4)ccc3c2[nH]1)C(C)C [Example 405] | 0.009 | 1 to 990 | – | 1 to 990 | 1000 to 44000 | – | – | EC50 ([2]; genotype 1a replicon): 1 to 999 pM; EC50 ([6]; genotype 2a JFH-1 replicon): 1 to 999 pM
COC(=O)N[C@H](C(=O)N1CCC[C@H]1c1nc2ccc3cc(-c4ccc(-c5cnc([C@@H]6[C@H]7CC[C@H](C7)N6C(=O)[C@H](NC(=O)OC)c6ccccc6)[nH]5)c(F)c4)ccc3c2[nH]1)C(C)C [Example 306] | 0.011 | 1 to 990 | – | 1 to 990 | > 44000 | – | – | EC50 ([2]; genotype 1a replicon): 1 to 999 pM; EC50 ([6]; genotype 2a JFH-1 replicon): 1 to 999 pM
COC(=O)N[C@H](C(=O)N1CCC[C@H]1c1nc(Cl)c(-c2cc3c4c(c2)OCc2cc(-c5[nH]c([C@@H]6CCCN6C(=O)[C@H](NC(=O)OC)c6ccccc6)nc5Cl)cc(c2-4)OC3)[nH]1)C(C)C [Example 399] | 0.017 | 1 to 990 | – | 1 to 990 | 1 to 999 | – | – | EC50 ([2]; genotype 1a replicon): 1 to 999 pM; EC50 ([6]; genotype 2a JFH-1 replicon): 1 to 999 pM
COC(=O)N[C@H](C(=O)N1[C@@H]2CC[C@@H](C2)[C@H]1c1nc(Cl)c(-c2ccc(-c3ccc4c(ccc5nc([C@@H]6C[C@H]7C[C@H]7N6C(=O)[C@@H](NC(=O)OC)C(C)C)[nH]c54)c3)cc2)[nH]1)C(C)C [Example 381] | 0.008 | 1 to 990 | – | 1 to 990 | > 44000 | – | – | EC50 ([2]; genotype 1a replicon): 1 to 999 pM; EC50 ([6]; genotype 2a JFH-1 replicon): 1 to 999 pM
COC(=O)N[C@H](C(=O)N1CCC[C@H]1c1nc2ccc3cc(-c4ccc5c(c4)CCc4nc([C@@H]6CC7(CN6C(=O)[C@@H](NC(=O)OC)[C@@H](C)OC)OCCO7)[nH]c4-5)ccc3c2[nH]1)C(C)C [Example 83] | – | 1 to 990 | – | – | > 44000 | – | – | EC50 ([1]; 72 h): 0.094 nM; EC50 [2, 10]: 1 to 999 pM; EC50 [5, 11]: 1000 to 4990 pM; EC50 [6, 12]: 1 to 999 pM
COC(=O)NC(C(=O)N1CCC[C@H]1c1ncc(-c2ccc(-c3ccc4c(ccc5nc([C@@H]6[C@H]7CC[C@H](C7)N6C(=O)[C@@H](NC(=O)OC)C(C)C)[nH]c54)c3)cc2)[nH]1)C(C)C (some centres unmarked) [Example 65] | – | 1 to 990 | – | – | > 44000 | – | – | EC50 ([1]; 72 h): 0.015 nM; EC50 [2, 10]: 1 to 999 pM; EC50 [5, 11]: 1 to 990 pM; EC50 [6, 12]: 1 to 999 pM
